How the values were obtained:
NCl-H929 tumor = experiment: In vivo combination efficacy in NCI-H929 human multiple myeloma tumor model; design: species or system C.B-17 SCID female mice; conditions: NCl-H929 tumor bearing mice; for anti-tumor activity, agent alone: Example 2 30 mg/kg every other week or bortezomib 1 mg/kg weekly
Procedure: (§1) Example 2 was formulated in 30% 2-Hydroxypropyl-beta-cyclodextrin (HPBCD), pH 9 and dosed as intravenously (iv) in a volume of 5 ml/kg. 5×10^6 MOLP-8 tumor cells or 10^7 NCl-H929 tumor cells were injected subcutaneously in the right flank of C.B-17 SCID female mice in a volume of 0.1 mL. Tumor volumes (measured by caliper) were calculated using the formula: length (mm)×width (mm)^2[…]. For efficacy studies, mice were randomized based on tumor volumes and growth inhibition was assessed by comparison of the differences in tumor volume between control and treated groups. Dosing began when mean tumor size reached approximately 160 mm^3 for MOLP-8 and approximately 230 mm^3 for NCl-H929.

MOLP-8 tumor = experiment: In vivo efficacy in MOLP-8 human multiple myeloma tumor model; design: species or system C.B-17 SCID female mice; conditions: MOLP-8 tumor bearing mice
Procedure: as §1

[1] = system: KMS-12-BM (multiple myeloma) cells; experiment: Caspase Activity Assay (Caspase-Glo 3/7, 6 h treatment), KMS-12-BM; type: cell-based; conditions: KMS-12-BM cells, geometric mean of multiple measurements
Procedure: (§2) This is a cell assay to measure the induction of apoptosis in MOLP-8 (multiple myeloma), KMS-12-BM (multiple myeloma), MV-4-11 (acute myeloid leukemia), and NCl-H23 (non-small cell lung cancer) cells after 6 h treatment. On the first day, 3000 (MOLP-8, KMS-12-BM, MV-4-11) or 1250 (NCl-H23) cells/well were seeded in 50 μL of growth media (IMDM+10% FBS+2 mM L-Glu for MV-4-11 and RPM1-1640+10% FBS+2 mM L-Glu for all other cell lines) in 384-well white microplates, and incubated overnight (37° C., 5% CO2, 80% RH). On the second day, the cells were treated with Mcl-1 inhibitors using an ECHO acoustic liquid handler (10 point half-log serial dilution, 31.5 μM top concentration, 0.3% final DMSO concentration). After 6 h incubation (37° C., 5% CO2, 80% RH), 25 μL of Caspase-Glo 3/7 reagent (Promega) was added into each well, and plates were incubated at room temperature for 30 min protected from light. Luminescence was recorded using an Infinite M200 microplate reader (Tecan) with a 100 ms integration time. EC50 values were calculated using GeneData analysis software.

[2] = system: MOLP-8 (multiple myeloma) cells; experiment: Caspase Activity Assay (Caspase-Glo 3/7, 6 h treatment), MOLP-8; type: cell-based, human; conditions: MOLP-8 cells, geometric mean of multiple measurements
Procedure: as §2

[3] = system: MV-4-11 (acute myeloid leukemia) cells; experiment: Caspase Activity Assay (Caspase-Glo 3/7, 6 h treatment), MV-4-11; type: cell-based, human; conditions: MV-4-11 cells, geometric mean of multiple measurements
Procedure: as §2

MV-4-11 tumor = experiment: In vivo efficacy in MV-4-11 human acute myeloid leukemia tumor model; design: species or system C.B-17 SCID female mice; conditions: for mice remaining tumor free / tumor regression: MV-4-11 tumors
Procedure: as §1, with “a single intravenous” for “intravenously”, “(iv) administration” for “(iv)”, “10^6 MV-4-11” for “5×10^6 MOLP-8 tumor cells or 10^7 NCl-H929”, “mL. Tumor volumes (measured by caliper), animal body weight, and tumor conditions were recorded twice weekly for the duration of the study.” for “mL.”, “approximately” for “approximately 160 mm^3 for MOLP-8 and approximately”, “mm^3.” for “mm^3 for NCl-H929.”

[4] = system: NCl-H23 (non-small cell lung cancer) cells; experiment: Caspase Activity Assay (Caspase-Glo 3/7, 6 h treatment), NCI-H23; type: cell-based; conditions: geometric mean of multiple measurements
Procedure: as §2

## CC(C)C[C@H](NC(=O)[C@H](Cc1ccccc1)NC(=O)c1cnccn1)B(O)O [bortezomib, reference compound]
NCl-H929 tumor
  anti-tumor activity, agent alone: no significant anti-tumor activity

## Cc1c2c(nn1C)CSCc1cc(n(C)n1)CSc1cc(c3ccccc3c1)OCCCc1c(C(=O)O)n(C)c3c-2c(Cl)ccc13 (atropisomer, axis not shown; (Ra)) [Example 2, (Ra)-(+)-17-chloro-5,13,14,22-tetramethyl-28-oxa-2,9-dithia-5,6,12,13,22-pentaazaheptacyclo[27.7.1.1^4,7.0^11,15.0^16,21.0^20,24.0^30,35]octatriaconta-1(37),4(38),6,11,14,16,18,20,23,29,31,33,35-tridecaene-23-carboxylic Acid]
MOLP-8 tumor; iv
  anti-tumor activity (qualitative): dose dependent anti-tumor activity
MOLP-8 tumor; single iv administration at 10 mg/kg
  tumor growth inhibition (TGI): 52%
MOLP-8 tumor; single iv administration at 30 mg/kg
  tumor growth inhibition (TGI): 92%
MOLP-8 tumor; single iv administration at 60 or 100 mg/kg, measured 10 days after dosing
  mice with complete tumor regression: 13 out of 14
[1]
  EC50: 43 nM
[2]
  EC50: 30 nM
[3]
  EC50: 20 nM
NCl-H929 tumor
  anti-tumor activity, agent alone: no significant anti-tumor activity
NCl-H929 tumor; Example 2 every other week at 30 mg/kg in combination with weekly bortezomib at 1 mg/kg
  anti-tumor effect of combination: tumor regression
MV-4-11 tumor; once weekly iv 30 mg/kg, 16 days after initiation of therapy
  mice remaining tumor free: 1 of 6
MV-4-11 tumor; once weekly iv 30 mg/kg, at Day 6
  tumor regression: ~73%
MV-4-11 tumor; single iv dose of 100 mg/kg
  tumor regression: 100%
MV-4-11 tumor; single iv dose of 100 mg/kg, 16 days after therapy
  mice remaining tumor free: 4 of the 6
MV-4-11 tumor; mice bearing subcutaneous MV-4-11 tumors, iv
  anti-tumor activity (qualitative): significant anti-tumor activity

## Cc1c2c(nn1C)CSCc1cc(n(C)n1)CSc1cc(c3ccccc3c1)OCCCc1c(C(=O)O)n(C)c3c-2c(Cl)ccc13 (single isomer, unassigned) [Example 3, (Sa)-(−)-17-chloro-5,13,14,22-tetramethyl-28-oxa-2,9-dithia-5,6,12,13,22-pentaazaheptacyclo[27.7.1.1^4,7.0^11,15.0^16,21.0^20,24.0^30,35]octatriaconta-1(37),4(38),6,11,14,16,18,20,23,29,31,33,35-tridecaene-23-carboxylic Acid]
[1]; Homo sapiens, KMS-12-BM, 6 h
  EC50: > 1030 nM
[4]; Homo sapiens, NCI-H23, 6 h
  EC50: > 10000 nM
[2]; Homo sapiens, MOLP-8, 6 h
  EC50: > 2300 nM
[3]; Homo sapiens, MV4-11, 6 h
  EC50: > 1580 nM

## Cc1c2c(nn1C)CSCc1cc(n(C)n1)CSc1cc(c3ccccc3c1)OCCCc1c(C(=O)O)n(C)c3c-2c(Cl)ccc13 [Example 1, 17-chloro-5,13,14,22-tetramethyl-28-oxa-2,9-dithia-5,6,12,13,22-pentaazaheptacyclo[27.7.1.1^4,7.0^11,15.0^16,21.0^20,24.0^30,35]octatriaconta-1(37),4(38),6,11,14,16,18,20,23,29,31,33,35-tridecaene-23-carboxylic Acid]
[1]; Homo sapiens, KMS-12-BM, 6 h
  EC50: 48 nM
[4]
  EC50: 531 nM
[2]; Homo sapiens, MOLP-8, 6 h
  EC50: 44 nM
[3]; Homo sapiens, MV4-11, 6 h
  EC50: 24 nM
